The results in this text go back to patent US7759345B2, “Antitumoral derivatives of ET-743” (priority 2001, dated 2010).

The test system of assay [1] is A-549. The assay is described as follows: Inhibition of cells growth by colorimetric assay (SRB), A-549. Format: cell-based. The conditions noted are these: SRB, 48 hours exposure; for GI50 / LC50 (concentration for 50% cell killing): Homo sapiens, A549, 48 h; for TGI A-549 / GI50: A-549; for GI50: read-out: GI50 A-549; for LC50 (concentration for 50% cell killing): read-out: LC50 A-549, A-549. The protocol: (§1) 2°.—Inhibition of Cells Growth by Colorimetric Assay.
(§2) A colorimetric type of assay, using sulforhodamine B (SRB) reaction has been adapted for a quantitative measurement of cell growth and viability [following the technique described by Philip Skehan, et al. (1990), New colorimetric cytotoxicity assay for anticancer drug screening, J. Natl. Cancer Inst., 82:1107-1112]
(§3) This form of the assay employs 96 well cell culture microplates of 9 mm diameter (Faircloth, 1988; Mosmann, 1983). Most of the cell lines are obtained from American Type Culture Collection (ATCC) derived from different human cancer types.
(§4) Cells are maintained in RPMI 1640 10% FBS, supplemented with 0.1 g/l penicillin and 0.1 g/l streptomycin sulfate and then incubated at 37° C., 5% CO2 and 98% humidity. For the experiments, cells were harvested from subconfluent cultures using trypsin and resuspended in fresh medium before plating.
(§5) Cells are seeded in 96 well microtiter plates, at 5×10^3 cells per well in aliquots of 195 μl medium, and they are allowed to attach to the plate surface by growing in drug free medium for 18 hours. Afterward, samples are added in aliquots of 5 μl in a ranging from 10 to 10^−8 μg/ml, dissolved in DMSO/EtOH/PBS (0.5:0.5:99). After 48 hours exposure, the antitumor effect are measured by the SRB methodology: cells are fixed by adding 50 μl of cold 50% (wt/vol) trichloroacetic acid (TCA) and incubating for 60 minutes at 4° C. Plates are washed with deionized water and dried. One hundred μl of SRB solution (0.4% wt/vol in 1% acetic acid) is added to each microtiter well and incubated for 10 minutes at room temperature. Unbound SRB is removed by washing with 1% acetic acid. Plates are air dried and bound stain is solubilized with Tris buffer. Optical densities are read on a automated spectrophotometric plate reader at a single wavelength of 490 nm.
(§6) The values for mean+/−SD of data from triplicate wells are calculated. Some parameters for cellular responses can be calculated: GI=growth inhibition, TGI=total growth inhibition (cytostatic effect) and LC=cell killing (cytotoxic effect).
(§7) Obtained results may predict the usefulness of a certain drug as a potential cancer treatment. For this technique, compounds which show GI50 values smaller than 10 μg/ml are selected to continue with further studies. GI50's data allow to predict that not only could a drug be cystostatic, but also it could have a potential in terms of tumor reduction.

Assay [2] has as its system HT-29. Description: Inhibition of cells growth by colorimetric assay (SRB), HT-29. Format: cell-based. The settings on record: SRB, 48 hours exposure; for GI50 / LC50 (concentration for 50% cell killing): Homo sapiens, HT-29, 48 h; for TGI HT-29 / GI50: HT-29; for GI50: read-out: GI50 HT-29; for LC50 (concentration for 50% cell killing): read-out: LC50 HT-29, HT-29. The protocol:
as §1, §2, §3, §4, §5, §6, §7

By GI50 is commonly meant the concentration at which growth is held to half of that of the control. For the compound `COc1cc2c(cc1OC(=O)C(F)(F)C(F)(F)C(F)(F)F)CCN[C@]21CS[C@@H]2c3c(OC(C)=O)c(C)c4c(c3[C@H](COC1=O)N1C2[C@H]2c3c(cc(C)c(OC)c3O)C[C@@H]([C@@H]1C#N)N2C)OCO4` (stereo partly drawn) [Compound 13], in assay [1], the “TGI A-549” value amounted to 3.24E-09, the GI50 came out at 1.08 nM and the LC50 (concentration for 50% cell killing) was 8.65 nM. In addition, in assay [2], the “TGI HT-29” value came out at 3.24E-10, the GI50 stood at 0.324 nM and the LC50 (concentration for 50% cell killing) was found to be 10.8 nM.
In the case of `COc1cc2c(cc1OC(=O)c1cc3ccccc3oc1=O)CCN[C@]21CS[C@@H]2c3c(OC(C)=O)c(C)c4c(c3[C@H](COC1=O)N1C2[C@H]2c3c(cc(C)c(OC)c3O)C[C@@H]([C@@H]1C#N)N2C)OCO4` (stereo partly drawn) [Compound 21], in assay [1], the “TGI A-549” value turned out to be 1.06E-08, the GI50 worked out at 3.34 nM and the LC50 (concentration for 50% cell killing) turned out to be 10600 nM. Besides, in assay [2], the “TGI HT-29” value worked out at 1.06E-07, the GI50 was found to be 5.31 nM and the LC50 (concentration for 50% cell killing) was 10600 nM.
As for `C=COC(=O)Oc1cc2c(cc1OC)[C@@]1(CS[C@@H]3c4c(OC(C)=O)c(C)c5c(c4[C@H](COC1=O)N1C3[C@H]3c4c(cc(C)c(OC)c4O)C[C@@H]([C@@H]1C#N)N3C)OCO5)NCC2` (stereo partly drawn) [Compound 29], in assay [1], the “TGI A-549” value turned out to be 4.32E-09, the GI50 was 2.16 nM and the LC50 (concentration for 50% cell killing) was found to be 10.8 nM. In assay [2], the “TGI HT-29” value turned out to be 2.16E-09, the GI50 stood at 2.16 nM and the LC50 (concentration for 50% cell killing) came to 1080 nM.
For the compound `C=COC(=O)Oc1cc2c(cc1OC)[C@@]1(CS[C@@H]3c4c(OC(C)=O)c(C)c5c(c4[C@H](COC1=O)N1C3[C@H]3c4c(cc(C)c(OC)c4OC(=O)OC=C)C[C@@H]([C@@H]1C#N)N3C)OCO5)NCC2` (stereo partly drawn) [Compound 30], in assay [1], the “TGI A-549” value came out at 5.49E-08, the GI50 is 32.9 nM and the LC50 (concentration for 50% cell killing) turned out to be 3290 nM. In addition, in assay [2], the “TGI HT-29” value came out at 8.78E-08, the 50% growth inhibitory concentration (GI50) worked out at 87.8 nM and the LC50 (concentration for 50% cell killing) came to 11000 nM.
As to `C=COC(=O)Oc1cc2c(cc1OC)[C@@]1(CS[C@@H]3c4c(OC(C)=O)c(C)c5c(c4[C@H](COC1=O)N1C3[C@H]3c4c(cc(C)c(OC)c4OC(=O)OC=C)C[C@@H]([C@@H]1C#N)N3C)OCO5)N(C(=O)OC=C)CC2` (stereo partly drawn) [Compound 31], in assay [1], the “TGI A-549” value came out at 9.17E-08, the GI50 stood at 40.8 nM and the LC50 (concentration for 50% cell killing) stood at 1020 nM. In addition, in assay [2], the “TGI HT-29” value turned out to be 8.15E-08, the GI50 is 81.5 nM and the LC50 (concentration for 50% cell killing) is 10200 nM.
Take `C=COC(=O)Oc1cc2c(cc1OC)[C@@]1(CS[C@@H]3c4c(OC(C)=O)c(C)c5c(c4[C@H](COC1=O)N1C3[C@H]3c4c(cc(C)c(OC)c4O)C[C@@H]([C@@H]1C#N)N3C)OCO5)N(C(=O)OC=C)CC2` (stereo partly drawn) [Compound 32]: in assay [1], the “TGI A-549” value was found to be 6.59E-09, the GI50 came out at 2.2 nM and the LC50 (concentration for 50% cell killing) was 11 nM. In assay [2], the “TGI HT-29” value came to 6.60E-09, the GI50 came out at 1.1 nM and the LC50 (concentration for 50% cell killing) came out at 9.88 nM.
In the case of `C=COC(=O)N1CCc2cc(O)c(OC)cc2[C@@]12CS[C@@H]1c3c(OC(C)=O)c(C)c4c(c3[C@H](COC2=O)N2C1[C@H]1c3c(cc(C)c(OC)c3O)C[C@@H]([C@@H]2C#N)N1C)OCO4` (stereo partly drawn) [Compound 33], in assay [1], the “TGI A-549” value is recorded as 2.50E-08, the GI50 was determined as 4.37 nM and the LC50 (concentration for 50% cell killing) came to 12700 nM. In addition, in assay [2], the “TGI HT-29” value was found to be 1.25E-07, the GI50 is 34.2 nM and the LC50 (concentration for 50% cell killing) is 12500 nM.
